# Experimental data reported in ChEMBL document CHEMBL1122998, “New antihistaminic theophylline or theobromine derivatives” (1985).
# Legend:
# [1] = tested on: Cavia porcellus; assay: Percent decrease in bronchodilator activity against histamine-induced bronchospasm reaction in guinea pig by intraveneous administration at dose 10.5 ug/kg
# [2] = tested on: Rattus norvegicus; assay: Percentage decrease in antiallergic activity against cutaneous reaction to histamine in rat, by oral administration at a dose of 10 mg/kg; assay type: functional
# [3] = tested on: Cavia porcellus; assay: Percentage decrease in bronchodilator activity against serotonin-induced bronchospasm reaction in guinea pig by intraveneous administration at dose 250 ug/kg; assay type: functional
# [4] = tested on: Cavia porcellus; assay: Percent decrease in bronchodilator activity against acetylcholine-induced bronchospasm reaction in guinea pig by intraveneous administration at dose 250 ug/kg; assay type: functional
# [5] = tested on: Rattus norvegicus; assay: Percent decrease in antiallergic activity by antigen/antibody reaction assay in rat by oral administration at a dose of 10 mg/kg; assay type: functional
smiles,measurement,setting,value
Cn1cnc2c1c(=O)n(CC(O)CN1CCN(CCCSc3ccc(Cl)cc3)CC1)c(=O)n2C (stereo unspecified),Decrease,[1],0%
same,Decrease,[2],0%
same,Decrease,[3],8%
same,Decrease,[4],11%
same,Decrease,[5],0%
COc1ccc(OCCCN2CCN(CCCn3cnc4c3c(=O)n(C)c(=O)n4C)CC2)cc1,Decrease,[1],60%
same,Decrease,[2],0%
same,Decrease,[3],0%
same,Decrease,[4],25%
same,Decrease,[5],0%
Cn1cnc2c1c(=O)n(CC(O)CN1CCN(CCCOc3ccccc3)CC1)c(=O)n2C (stereo unspecified),Decrease,[1],10%
same,Decrease,[2],30%
same,Decrease,[3],50%
same,Decrease,[4],0%
same,Decrease,[5],76%
Cn1cnc2c1c(=O)n(CC(O)CN1CCN(CCCSc3ccccc3)CC1)c(=O)n2C (stereo unspecified),Decrease,[1],66%
same,Decrease,[2],10%
same,Decrease,[3],96%
same,Decrease,[4],24%
same,Decrease,[5],43%
Cn1c(=O)c2c(ncn2CCC(=O)N2CCN(CCCSc3ccccc3)CC2)n(C)c1=O,Decrease,[1],2%
same,Decrease,[2],0%
same,Decrease,[3],0%
same,Decrease,[4],3%
same,Decrease,[5],0%
Cn1c(=O)c2c(ncn2CCCN2CCN(CCCCOc3ccccc3)CC2)n(C)c1=O,Decrease,[1],80%
same,Decrease,[2],0%
same,Decrease,[3],26%
same,Decrease,[4],35%
same,Decrease,[5],0%
COc1ccc(OCCCN2CCN(CC(O)Cn3c(=O)c4c(ncn4C)n(C)c3=O)CC2)cc1 (stereo unspecified),Decrease,[1],28%
same,Decrease,[2],0%
same,Decrease,[3],3%
same,Decrease,[4],11%
same,Decrease,[5],0%
Cn1c(=O)c2c(ncn2CCCN2CCN(CCOc3ccccc3)CC2)n(C)c1=O,Decrease,[1],70%
same,Decrease,[2],0%
same,Decrease,[3],0%
same,Decrease,[4],15%
same,Decrease,[5],0%
Cn1cnc2c1c(=O)n(CCCN1CCN(CCCSc3ccc(Cl)cc3)CC1)c(=O)n2C,Decrease,[1],0%
same,Decrease,[2],12%
same,Decrease,[3],47%
same,Decrease,[4],27%
same,Decrease,[5],17.5%
Cn1c(=O)c2c(ncn2CC(O)CN2CCN(CC(O)CSc3ccccc3)CC2)n(C)c1=O (stereo unspecified),Decrease,[1],89%
same,Decrease,[2],29%
same,Decrease,[3],0%
same,Decrease,[4],0%
same,Decrease,[5],0%
Cn1c(=O)c2c(ncn2CC(O)CN2CCN(CCCCSc3ccccc3)CC2)n(C)c1=O (stereo unspecified),Decrease,[1],13%
same,Decrease,[2],0%
same,Decrease,[3],0%
same,Decrease,[4],34%
same,Decrease,[5],0%
Cn1c(=O)c2c(ncn2CC(O)CN2CCN(CCCCOc3ccccc3)CC2)n(C)c1=O (stereo unspecified),Decrease,[1],82%
same,Decrease,[2],0%
same,Decrease,[3],22%
same,Decrease,[4],45%
same,Decrease,[5],0%
Cn1c(=O)c2c(ncn2CCCCCCN2CCN(CCCCSc3ccccc3)CC2)n(C)c1=O,Decrease,[1],0%
same,Decrease,[2],0%
same,Decrease,[3],23%
same,Decrease,[4],23%
same,Decrease,[5],0%
Cn1c(=O)c2c(ncn2CCCN2CCN(CCCSc3ccc(Cl)cc3)CC2)n(C)c1=O,Decrease,[1],25%
same,Decrease,[2],0%
same,Decrease,[3],0%
same,Decrease,[4],0%
same,Decrease,[5],0%
CN(CCCSc1ccccc1)CCN(C)CCCn1cnc2c1c(=O)n(C)c(=O)n2C,Decrease,[1],2%
same,Decrease,[3],50%
same,Decrease,[4],12%
Cn1c(=O)c2c(ncn2CCCN2CCN(CCCOc3ccccc3)CC2)n(C)c1=O,Decrease,[1],88%
same,Decrease,[2],28%
same,Decrease,[3],35%
same,Decrease,[4],30%
same,Decrease,[5],48%
Cn1c(=O)c2c(ncn2CCCN2CCN(CCCOc3ccc(Cl)cc3)CC2)n(C)c1=O,Decrease,[1],30%
same,Decrease,[2],0%
same,Decrease,[3],0%
same,Decrease,[4],0%
same,Decrease,[5],0%
COc1ccc(SCCCN2CCN(CCCn3cnc4c3c(=O)n(C)c(=O)n4C)CC2)cc1,Decrease,[1],53%
same,Decrease,[3],0%
same,Decrease,[4],0%
CC(C(=O)N1CCN(CCCSc2ccccc2)CC1)n1cnc2c1c(=O)n(C)c(=O)n2C (stereo unspecified),Decrease,[1],3%
same,Decrease,[2],6%
same,Decrease,[3],0%
same,Decrease,[4],4%
same,Decrease,[5],5%
Cc1ccc(SCCCN2CCN(CC(O)Cn3c(=O)c4c(ncn4C)n(C)c3=O)CC2)cc1 (stereo unspecified),Decrease,[1],10%
same,Decrease,[2],4%
same,Decrease,[3],42%
same,Decrease,[4],29%
same,Decrease,[5],11%
Cn1c(=O)c2c(ncn2CC(O)CN2CCN(CCCCSc3ccc(Cl)cc3)CC2)n(C)c1=O (stereo unspecified),Decrease,[1],0%
same,Decrease,[2],0%
same,Decrease,[3],0%
same,Decrease,[4],0%
same,Decrease,[5],0%
COc1cc(OCCCN2CCN(CCCn3cnc4c3c(=O)n(C)c(=O)n4C)CC2)cc(OC)c1OC,Decrease,[1],0%
same,Decrease,[3],0%
same,Decrease,[4],0%
Cn1cnc2c1c(=O)n(CCCN1CCN(CCCOc3ccc(Cl)cc3)CC1)c(=O)n2C,Decrease,[1],14%
same,Decrease,[2],12.5%
same,Decrease,[3],30%
same,Decrease,[4],18%
same,Decrease,[5],13%
Cn1c(=O)c2c(ncn2CCC(O)CCN2CCN(CCCSc3ccccc3)CC2)n(C)c1=O (stereo unspecified),Decrease,[1],35%
same,Decrease,[2],38%
same,Decrease,[3],36%
same,Decrease,[4],20%
same,Decrease,[5],70%
Cn1c(=O)c2c(ncn2CC(O)CN2CCCN(CCCSc3ccccc3)CC2)n(C)c1=O (stereo unspecified),Decrease,[1],74%
same,Decrease,[2],4%
same,Decrease,[3],0%
same,Decrease,[4],0%
same,Decrease,[5],0%
Cn1c(=O)c2c(ncn2CCCN2CCN(CCCCSc3ccccc3)CC2)n(C)c1=O,Decrease,[1],47%
same,Decrease,[2],0%
same,Decrease,[3],24%
same,Decrease,[4],34%
same,Decrease,[5],0%
COc1ccc(OCCCN2CCN(CC(O)Cn3cnc4c3c(=O)n(C)c(=O)n4C)CC2)cc1 (stereo unspecified),Decrease,[1],27%
same,Decrease,[2],0%
same,Decrease,[3],0%
same,Decrease,[4],0%
same,Decrease,[5],0%
Cn1cnc2c1c(=O)n(CCCN1CCN(CCCSc3ccccc3)CC1)c(=O)n2C,Decrease,[1],56%
same,Decrease,[2],31.5%
same,Decrease,[3],25%
same,Decrease,[4],10%
same,Decrease,[5],15%
Cn1cnc2c1c(=O)n(CC(O)CN1CCN(CCCOc3ccc(Cl)cc3)CC1)c(=O)n2C (stereo unspecified),Decrease,[1],19%
same,Decrease,[2],24%
same,Decrease,[3],11%
same,Decrease,[4],14%
same,Decrease,[5],23%
Cn1c(=O)c2c(ncn2CC(O)CN2CCN(CCOc3ccccc3)CC2)n(C)c1=O (stereo unspecified),Decrease,[1],76%
same,Decrease,[2],56%
same,Decrease,[3],21%
same,Decrease,[4],0%
same,Decrease,[5],59%
Cn1cnc2c1c(=O)n(CCCN1CCN(CC(O)CSc3ccccc3)CC1)c(=O)n2C (stereo unspecified),Decrease,[1],25%
same,Decrease,[2],0%
same,Decrease,[3],3%
same,Decrease,[4],2%
same,Decrease,[5],0%
Cc1ccc(SCCCN2CCN(CCCn3cnc4c3c(=O)n(C)c(=O)n4C)CC2)cc1,Decrease,[1],15%
same,Decrease,[2],0%
same,Decrease,[3],24%
same,Decrease,[4],35%
same,Decrease,[5],0%
CN(C)CCC(c1ccc(Cl)cc1)c1ccccn1 (stereo unspecified) [CHLORPHENIRAMINE],Decrease,[1],62%
same,Decrease,[2],15%
same,Decrease,[3],0%
same,Decrease,[5],0%
CN1CCC(=C2c3ccccc3CC(=O)c3sccc32)CC1 [KETOTIFEN],Decrease,[1],10%
same,Decrease,[2],90%
same,Decrease,[5],64%
